How the values were obtained:
[1] = target: T1, Full-length inactive AKT1 (Homo sapiens (Human), UniProt P31749); assay: Thermal Shift Assay (protein-ligand binding); conditions: Kd at 25° C. calculated using constant ligand binding enthalpy −15 kcal/mol; 15 μM compound, ANS dye
Experimental: Binding analysis. Protein-ligand binding was identified with the thermal shift assay which is based on the ligand-induced stabilization of the protein tertiary structure. The thermal stability of the ligand-Akt1 complex was assessed by subjecting the complex to a set temperature gradient and by comparison of the meltion temperature of the Akt1-ligand complex with the melting temperature of the protein alone. Protein unfolding was monitored by the fluorescence readout of an environmentally sensitive fluorescent dye, 1-anilinonaphthalene-8-sulfonic acid (ANS). […] The PCR plate was placed into a RT-PCR instrument and a temperature gradient was performed, increasing from 27 to 80° C., at 1° C./30 sec heat rate with a dwell time of 20 sec. The change in ANS fluorescence was measured using the filter set of 475 nm/525 nm excitation/emission.

Phospho-Akt (S473) = assay: Cell ELISA Assay, Phospho-Akt detection; assay type: cell-based; conditions: cells treated for 1 hour, cell line not stated
Experimental: Phospho-Akt detection analysis. Phospho-Akt (S473) was detected using cell ELISA. Briefly, cells were plated in a 96-well plate at 7,000-10,000 cells per well, cultured for 2-3 days in complete growth medium, and then treated with various drugs or combinations of drugs for 1 hour. The cells were fixed with ice-cold methanol, and washed with TBS supplemented with 1% H2O2. Phospho-Akt (S473) was probed with corresponding rabbit antibody as a primary antibody, and horseradish peroxidase conjugated goat anti-rabbit IgG. After treatment with SuperSignal® ELISA for 15 minutes, the detection was performed using a luminometer. Data were normalized to untreated controls and analyzed with Microsoft Excel.

cells = assay: Cell proliferation / viability GI50 (MTS assay or ATP quantitation assay); assay type: cell-based; conditions: 72 hours treatment; cell line and assay (MTS or ATP quantitation) not stated
Experimental: Cell proliferation analysis. Cell survival was determined by the MTS assay. Briefly, cells were plated in a 96-well plate at 2,000-10,000 cells per well, cultured for 24 hours in complete growth medium, and then treated with various drugs and drug combinations for 72 hours. MTS was added and incubated for 4 hour, followed by assessment of cell viability using the microplate reader at 570 nm. Data were normalized to untreated controls and analyzed with Microsoft Excel.
Cell viability analysis. Cell viability was determined by the ATP quantitation assay. Briefly, cells were plated in a 96-well plate at 2,000-10,000 cells per well, cultured for 24 hours in complete growth medium, and then treated with various drugs or combination of drugs for 72 hours. CellTiter-Glo® reagent was added and incubated at room temperature for 10 minutes, followed by assessment of cell viability using a luminometer. Data were normalized to untreated controls and analyzed with Microsoft Excel.

[2] = target: T1, Full-length inactive AKT1; assay: Inactive Akt Alpha Screen Assay; conditions: 8 nM inactive Akt1 activated by PDK1 and MAPKAPK2, lipid vesicles, 50 μM ATP, biotinylated crosstide; read-out: Akt1 biochemical assay IC50 AlphaScreen crosstide
Experimental: AKT1 activity was assayed using the GSK3-derived biotinylated peptide substrate, crosstide (biotin-[…]), and AlphaScreen™ (Amplified Luminescent Proximity Homogeneous Assay) technology. AKT1 activation was achieved by the addition of the activating kinases PDK1 and MAPKAPK2, lipid vesicles, and ATP. The extent of peptide phosphorylation was determined using a phospho-AKT substrate antibody and acceptor beads conjugated to Protein A and donor beads conjugated to streptavidin that bind to the biotin on the peptide. Excitation of the donor beads converted ambient oxygen to excited singlet oxygen which, when in close proximity to acceptor beads, reacted with acceptor beads resulting in signal amplification.
After a 20 minute pre-incubation at room temperature, the kinase reaction was initiated by the addition of 5 μL of an activation mixture diluted in assay buffer containing biotinylated crosstide, PDK1, MAPKAPK2, DOPS/DOPC, PtdIns(3,4,5)P3, and ATP for final concentrations of 60 nM biotinylated crosstide, 0.1 nM PDK1, 0.7 nM MK2, 5.5 μM DOPS, 5.5 μM DOPC, 0.5 μM PtdIns(3,4,5)P3, and 50 μM ATP. The plates were incubated for 30 minutes at room temperature, and then stopped in the dark by the addition of 10 μL stop/detection mixture prepared in assay buffer containing EDTA, AlphaScreen™ Streptavidin Donor and Protein A Acceptor beads, and phospho-AKT substrate antibody for final concentrations of 10 mM EDTA, 500 ng/well of both AlphaScreen™ Streptavidin Donor beads and Protein A Acceptor beads, and phospho-AKT substrate antibody at a final dilution of 1:350. Assay plates were incubated for 90 minutes at room temperature in the dark, and the plates were read on a Perkin Elmer Envision Multilabel plate reader (excitation wavelength: 640 nm, emission wavelength: 570 nm). […]

T1 sequence (P31749 whole entry): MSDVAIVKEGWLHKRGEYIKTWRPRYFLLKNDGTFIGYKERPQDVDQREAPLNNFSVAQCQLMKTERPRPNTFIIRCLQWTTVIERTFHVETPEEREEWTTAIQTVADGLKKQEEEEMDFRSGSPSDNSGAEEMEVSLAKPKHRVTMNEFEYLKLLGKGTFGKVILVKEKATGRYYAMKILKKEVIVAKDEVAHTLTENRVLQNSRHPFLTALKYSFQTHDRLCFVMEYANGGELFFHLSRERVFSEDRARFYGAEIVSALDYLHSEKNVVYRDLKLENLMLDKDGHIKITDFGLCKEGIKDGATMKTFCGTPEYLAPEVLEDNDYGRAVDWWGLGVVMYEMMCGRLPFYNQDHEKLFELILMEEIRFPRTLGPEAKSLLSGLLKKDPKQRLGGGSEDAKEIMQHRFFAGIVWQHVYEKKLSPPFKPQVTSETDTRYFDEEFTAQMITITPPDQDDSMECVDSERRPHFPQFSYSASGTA

`Nc1ncccc1-c1nc2ccc(-c3cccc(NC(=O)C4CC4)c3)nc2n1-c1ccc(C2(N)CCC2)cc1` [Cmpd 3, N-(3-(3-(4-(1-aminocyclobutyl)phenyl)-2-(2-aminopyridin-3-yl)-3H-imidazo[4,5-b]pyridin-5-yl)phenyl)cyclopropane-carboxamide] showed a Kd [1] of 7 nM, an IC50 (Phospho-Akt (S473)) of 29 nM and a GI50 (cells) of 444000 nM. For the same compound, the IC50 [2] was 3.09 nM.

Reference: patent US8609688B2, “Substituted imidazopyridinyl-aminopyridine compounds” (ArQule, Inc., priority 2011, dated 2013)
